Data published in patent US5602239A, “5-O-desosaminylerythronolide derivatives” (Taisho Pharmaceutical Co., Ltd., priority 1993, dated 1997).
Converted amounts (≈) assume the structure as drawn.

Key:
Format in all cases: cell-based
S. aureus 209P-JC = test: In vitro antibacterial activity (MIC), S. aureus 209P-JC; settings: Staphylococcus aureus, sensitive disc media, Japan Society of Chemotherapy method, read-out: MIC value (Minimum Inhibitory Concentration)
Description: (§1) The in vitro antibacterial activity of the compound of the present invention obtained in Example 9 against various experimental bacteria was measured using sensitive disc media (produced by Eiken Chemical Co.) according to the MIC measuring method specified by the Japan Society of Chemotherapy. 6-O-Methylerythromycin A was used as a comparative drug.

E. faecalis CSJ 1212 = test: In vitro antibacterial activity (MIC), E. faecalis CSJ 1212; settings: Enterococcus faecalis, CSJ1212, sensitive disc media, Japan Society of Chemotherapy method, read-out: MIC value (Minimum Inhibitory Concentration)
Description: as §1

S. aureus B1 = test: In vitro antibacterial activity (MIC), S. aureus B1; settings: Staphylococcus aureus, sensitive disc media, Japan Society of Chemotherapy method, read-out: MIC value (Minimum Inhibitory Concentration)
Description: as §1

S. epidermides IID 866 = test: In vitro antibacterial activity (MIC), S. epidermides IID 866; settings: sensitive disc media, Japan Society of Chemotherapy method, read-out: MIC value (Minimum Inhibitory Concentration)
Description: as §1

S. aureus Smith 4 = test: In vitro antibacterial activity (MIC), S. aureus Smith 4; settings: Staphylococcus aureus, SMITH4, sensitive disc media, Japan Society of Chemotherapy method, read-out: MIC value (Minimum Inhibitory Concentration)
Description: as §1

`CC[C@H]1OC(=O)[C@H](C)[C@@H](Oc2ccc([N+](=O)[O-])cc2[N+](=O)[O-])[C@H](C)[C@@H](O[C@@H]2O[C@H](C)C[C@H](N(C)C)[C@H]2O)[C@](C)(OC)C[C@@H](C)C(=O)[C@H](C)[C@H]2OC(=O)O[C@@]21C` [Example 9, 3-O-(2,4-dinitro)phenyl-5-O-desosaminyl-6-O-methylerythronolide A 11,12-cyclic carbonate] was tested, and the MIC (S. aureus 209P-JC) was 0.1 µg/mL (≈ 0.128 µM), the MIC (E. faecalis CSJ 1212) was 0.2 µg/mL (≈ 0.256 µM) and the MIC (S. aureus B1) was 0.78 µg/mL (≈ 0.998 µM). It also gave an MIC (S. epidermides IID 866) of 0.1 µg/mL (≈ 0.128 µM) and an MIC (S. aureus Smith 4) of 0.1 µg/mL (≈ 0.128 µM).

With `CC[C@H]1OC(=O)[C@H](C)[C@@H](O[C@H]2C[C@@](C)(OC)[C@@H](O)[C@H](C)O2)[C@H](C)[C@@H](O[C@@H]2O[C@H](C)C[C@H](N(C)C)[C@H]2O)[C@](C)(OC)C[C@@H](C)C(=O)[C@H](C)[C@@H](O)[C@]1(C)O` [Comparative drug, 6-O-Methylerythromycin A] the MIC (S. aureus 209P-JC) was 0.1 µg/mL (≈ 0.134 µM), the MIC (E. faecalis CSJ 1212) was 0.78 µg/mL (≈ 1.04 µM) and the MIC (S. aureus B1) was > 100 µg/mL. It also gave an MIC (S. epidermides IID 866) of 0.1 µg/mL (≈ 0.134 µM) and an MIC (S. aureus Smith 4) of 0.1 µg/mL (≈ 0.134 µM).
